By IC50 is commonly meant the concentration at which inhibition is half-maximal.

The values that follow come from patent US12679843B2, “Pyrrolopyrimidine amines as complement inhibitors” (BioCryst Pharmaceuticals, Inc., priority 2020, dated 2026).

In the test the target is Factor D (Homo sapiens, UniProt P00746). The test can be described thus: Factor D esterolytic assay (Z-Lys-SBzl thioester substrate, DTNB, 405 nm). The following applies: substrate Z-Lys-SBzl 1.29 mM, 100 mM HEPES, 500 mM NaCl, pH 7.5, 10% DMSO, tested a minimum of three times. In kind it is biochemical. In short, it runs like this: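 Human Factor D hydrolysis of Z-Lys-SBzl (1.29 mM) monitored at 405 nm via DTNB thiol detection for 600 s, 690 nm background subtracted. Buffer 100 mM HEPES, 500 mM NaCl, pH 7.5, 10% DMSO; substrate added immediately or after room-temperature preincubation. IC50 from percent inhibition of rate, at least three tests.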
Factor D, sequence (P00746 26-253): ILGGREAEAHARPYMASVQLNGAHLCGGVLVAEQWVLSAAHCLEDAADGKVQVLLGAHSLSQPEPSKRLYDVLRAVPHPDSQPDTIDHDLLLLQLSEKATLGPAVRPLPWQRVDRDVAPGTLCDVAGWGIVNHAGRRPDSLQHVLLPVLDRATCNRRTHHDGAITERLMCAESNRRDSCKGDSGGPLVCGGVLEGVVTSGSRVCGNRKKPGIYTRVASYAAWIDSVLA

On to `Nc1ncnc2c1c1cc(CCC(=O)O)ccc1n2CC(=O)N1[C@@H]2C[C@@H]2C[C@H]1C(=O)Nc1cccc(Br)n1` [Compound 165a, 3-(4-amino-9-(2-((1R,3S,5R)-3-((6-bromopyridin-2-yl)carbamoyl)-2-azabicyclo[3.1.0]hexan-2-yl)-2-oxoethyl)-9H-pyrimido[4,5-b]indol-6-yl)propanoic acid], for which the concentration for half-maximal inhibition (IC50) was less than 100 nM.

On to `Nc1ncnc2c1c1cc(O)ccc1n2CC(=O)N1[C@@H]2C[C@@H]2C[C@H]1C(=O)Nc1cccc(Br)n1` [Compound 166a, (1R,3S,5R)-2-(2-(4-amino-6-hydroxy-9H-pyrimido[4,5-b]indol-9-yl)acetyl)-N-(6-bromopyridin-2-yl)-2-azabicyclo[3.1.0]hexane-3-carboxamide], for which the IC50 is less than 100 nM.

For the compound `Nc1ncnc2c1c1ccc(O)cc1n2CC(=O)N1[C@@H]2C[C@@H]2C[C@H]1C(=O)Nc1cccc(Br)n1` [Compound 167a, (1R,3S,5R)-2-(2-(4-amino-7-hydroxy-9H-pyrimido[4,5-b]indol-9-yl)acetyl)-N-(6-bromopyridin-2-yl)-2-azabicyclo[3.1.0]hexane-3-carboxamide], the 50% inhibitory concentration (IC50) is less than 100 nM.

Turning to `CC(=O)Nc1ccc2c(c1)c1c(N)ncnc1n2CC(=O)N1[C@@H]2C[C@@H]2C[C@H]1C(=O)Nc1cccc(Br)n1` [Compound 168g, (1R,3S,5R)-2-(2-(6-acetamido-4-amino-9H-pyrimido[4,5-b]indol-9-yl)acetyl)-N-(6-bromopyridin-2-yl)-2-azabicyclo[3.1.0]hexane-3-carboxamide], the concentration for half-maximal inhibition (IC50) was less than 100 nM.

Consider `Nc1ncnc2c1c1cc(C(=O)NCC3CC3)ccc1n2CC(=O)N1[C@@H]2C[C@@H]2C[C@H]1C(=O)Nc1cccc(Br)n1` [Compound 169f, 4-amino-9-(2-((1R,3S,5R)-3-((6-bromopyridin-2-yl)carbamoyl)-2-azabicyclo[3.1.0]hexan-2-yl)-2-oxoethyl)-N-(cyclopropylmethyl)-9H-pyrimido[4,5-b]indole-6-carboxamide], for which the IC50 is less than 100 nM.

Regarding `CC(O)c1ccc2c(c1)c1c(N)ncnc1n2CC(=O)N1[C@@H]2C[C@@H]2C[C@H]1C(=O)Nc1cccc(Br)n1` (stereo partly drawn) [Compound 170c, (1R,3S,5R)-2-(2-(4-amino-6-(1-hydroxyethyl)-9H-pyrimido[4,5-b]indol-9-yl)acetyl)-N-(6-bromopyridin-2-yl)-2-azabicyclo[3.1.0]hexane-3-carboxamide], the half-inhibitory concentration (IC50) is less than 100 nM.

`Nc1ncnc2c1c1cc(C(F)(F)F)ccc1n2CC(=O)N1CCS[C@H]1C(=O)Nc1cccc(Br)n1` [Compound 171b, (S)-3-(2-(4-amino-6-(trifluoromethyl)-9H-pyrimido[4,5-b]indol-9-yl)acetyl)-N-(6-bromopyridin-2-yl)thiazolidine-2-carboxamide]: the IC50 was less than 100 nM.

As to `COc1cccc2c1c1c(N)ncnc1n2CC(=O)N1[C@H](C(=O)Nc2cccc(Br)n2)C[C@@]2(C)C[C@@H]12` [Compound 172a, (1R,3S,5R)-2-(2-(4-amino-5-methoxy-9H-pyrimido[4,5-b]indol-9-yl)acetyl)-N-(6-bromopyridin-2-yl)-5-methyl-2-azabicyclo[3.1.0]hexane-3-carboxamide], the 50% inhibitory concentration (IC50) is less than 100 nM.

For the compound `COc1cccc2c3c(N)ncnc3n(CC(=O)N3[C@H](C(=O)Nc4cccc(Br)n4)C[C@@]4(C)C[C@@H]34)c12` [Compound 173a, (1R,3S,5R)-2-(2-(4-amino-8-methoxy-9H-pyrimido[4,5-b]indol-9-yl)acetyl)-N-(6-bromopyridin-2-yl)-5-methyl-2-azabicyclo[3.1.0]hexane-3-carboxamide], the IC50 was less than 100 nM.

Consider `Nc1ncnc2c1c1cccc(C(F)(F)F)c1n2CC(=O)N1[C@@H]2C[C@@H]2C[C@H]1C(=O)Nc1cccc(Br)n1` [Compound 174g, (1R,3S,5R)-2-(2-(4-amino-8-(trifluoromethyl)-9H-pyrimido[4,5-b]indol-9-yl)acetyl)-N-(6-bromopyridin-2-yl)-2-azabicyclo[3.1.0]hexane-3-carboxamide], for which the IC50 was more than 1000 nM.

For `C[C@@]12C[C@@H](C(=O)Nc3cccc(Br)n3)N(C(=O)Cn3c4ncnc(N)c4c4cccc(C(F)(F)F)c43)[C@@H]1C2` [Compound 175a, (1R,3S,5R)-2-(2-(4-amino-8-(trifluoromethyl)-9H-pyrimido[4,5-b]indol-9-yl)acetyl)-N-(6-bromopyridin-2-yl)-5-methyl-2-azabicyclo[3.1.0]hexane-3-carboxamide], the IC50 was more than 1000 nM.

For the compound `Cc1cccc2c1c1c(N)ncnc1n2CC(=O)N1[C@H](C(=O)Nc2cccc(Br)n2)C[C@@]2(C)C[C@@H]12` [Compound 176a, (1R,3S,5R)-2-(2-(4-amino-5-methyl-9H-pyrimido[4,5-b]indol-9-yl)acetyl)-N-(6-bromopyridin-2-yl)-5-methyl-2-azabicyclo[3.1.0]hexane-3-carboxamide], the 50% inhibitory concentration (IC50) is 100 to 1000 nM.

For the compound `N#C[C@H]1C[C@@H](C(=O)Nc2cccc(Br)n2)N(C(=O)Cn2c3ccc(C(F)(F)F)cc3c3c(N)ncnc32)C1` [Compound 177d, (2S,4S)-1-(2-(4-amino-6-(trifluoromethyl)-9H-pyrimido[4,5-b]indol-9-yl)acetyl)-N-(6-bromopyridin-2-yl)-4-cyanopyrrolidine-2-carboxamide], the concentration for half-maximal inhibition (IC50) lay within 100 to 1000 nM.

`N#C[C@@H]1C[C@@H](C(=O)Nc2cccc(Br)n2)N(C(=O)Cn2c3ccc(C(F)(F)F)cc3c3c(N)ncnc32)C1` [Compound 178d, (2S,4R)-1-(2-(4-amino-6-(trifluoromethyl)-9H-pyrimido[4,5-b]indol-9-yl)acetyl)-N-(6-bromopyridin-2-yl)-4-cyanopyrrolidine-2-carboxamide]: the IC50 lay in the range of 100 to 1000 nM.

As for `Nc1ncnc2c1c1cc(C(F)(F)F)ccc1n2CC(=O)N1c2ccccc2C[C@H]1C(=O)Nc1cccc(Br)n1` [Compound 179d, (S)-1-(2-(4-amino-6-(trifluoromethyl)-9H-pyrimido[4,5-b]indol-9-yl)acetyl)-N-(6-bromopyridin-2-yl)indoline-2-carboxamide], the IC50 is more than 1000 nM.

Consider `Nc1ncnc2c1c1cc(C(F)(F)F)ccc1n2CC(=O)N1C[C@@H](N)C[C@H]1C(=O)Nc1cccc(Br)n1` [Compound 180e, (2S,4S)-4-amino-1-(2-(4-amino-6-(trifluoromethyl)-9H-pyrimido[4,5-b]indol-9-yl)acetyl)-N-(6-bromopyridin-2-yl)pyrrolidine-2-carboxamide], for which the IC50 lay within 100 to 1000 nM.

As for `C[C@@]12C[C@@H](C(=O)Nc3cccc(Br)n3)N(C(=O)Cn3c4ccncc4c4c(N)ncnc43)[C@@H]1C2` [Compound 181a, (1R,3S,5R)-2-(2-(4-amino-9H-pyrido[3′,4′:4,5]pyrrolo[2,3-d]pyrimidin-9-yl)acetyl)-N-(6-bromopyridin-2-yl)-5-methyl-2-azabicyclo[3.1.0]hexane-3-carboxamide], the concentration for half-maximal inhibition (IC50) is less than 100 nM.

On to `C[C@@]12C[C@@H](C(=O)Nc3cccc(Br)n3)N(C(=O)Cn3c4cnccc4c4c(N)ncnc43)[C@@H]1C2` [Compound 182a, (1R,3S,5R)-2-(2-(4-amino-9H-pyrido[4′,3′:4,5]pyrrolo[2,3-d]pyrimidin-9-yl)acetyl)-N-(6-bromopyridin-2-yl)-5-methyl-2-azabicyclo[3.1.0]hexane-3-carboxamide], for which the IC50 was less than 100 nM.

On to `C[C@@]12C[C@@H](C(=O)Nc3cccc(Br)n3)N(C(=O)Cn3c4ncccc4c4c(N)ncnc43)[C@@H]1C2` [Compound 183a, (1R,3S,5R)-2-(2-(4-amino-9H-pyrido[3′,2′:4,5]pyrrolo[2,3-d]pyrimidin-9-yl)acetyl)-N-(6-bromopyridin-2-yl)-5-methyl-2-azabicyclo[3.1.0]hexane-3-carboxamide], for which the concentration for half-maximal inhibition (IC50) is less than 100 nM.

On to `Cc1cc(C(F)(F)F)cc2c3c(N)ncnc3n(CC(=O)N3[C@H](C(=O)Nc4cccc(Br)n4)C[C@@]4(C)C[C@@H]34)c12` [Compound 184g, (1R,3S,5R)-2-(2-(4-amino-8-methyl-6-(trifluoromethyl)-9H-pyrimido[4,5-b]indol-9-yl)acetyl)-N-(6-bromopyridin-2-yl)-5-methyl-2-azabicyclo[3.1.0]hexane-3-carboxamide], for which the IC50 is less than 100 nM.

In the case of `CC(=O)Nc1ccc2c(c1)c1c(N)ncnc1n2CC(=O)N1[C@H](C(=O)Nc2cccc(Br)n2)C[C@@]2(C)C[C@@H]12` [Compound 185a, (1R,3S,5R)-2-(2-(6-acetamido-4-amino-9H-pyrimido[4,5-b]indol-9-yl)acetyl)-N-(6-bromopyridin-2-yl)-5-methyl-2-azabicyclo[3.1.0]hexane-3-carboxamide], the IC50 is less than 100 nM.

As to `C[C@@]12C[C@@H](C(=O)Nc3cccc(Br)n3)N(C(=O)Cn3c4ncnc(N)c4c4cccc(Br)c43)[C@@H]1C2` [Compound 186a, (1R,3S,5R)-2-(2-(4-amino-8-bromo-9H-pyrimido[4,5-b]indol-9-yl)acetyl)-N-(6-bromopyridin-2-yl)-5-methyl-2-azabicyclo[3.1.0]hexane-3-carboxamide], the IC50 was less than 100 nM.

On to `CCc1ccc2c(c1)c1c(N)ncnc1n2CC(=O)N1[C@@H]2C[C@@H]2C[C@H]1C(=O)Nc1cccc(Br)n1` [Compound 187c, (1R,3S,5R)-2-(2-(4-amino-6-ethyl-9H-pyrimido[4,5-b]indol-9-yl)acetyl)-N-(6-bromopyridin-2-yl)-2-azabicyclo[3.1.0]hexane-3-carboxamide], for which the IC50 is less than 100 nM.

For the compound `Nc1ncnc2c1c1cc([N+](=O)[O-])ccc1n2CC(=O)N1[C@@H]2C[C@@H]2C[C@H]1C(=O)Nc1cccc(Br)n1` [Compound 188g, (1R,3S,5R)-2-(2-(4-amino-6-nitro-9H-pyrimido[4,5-b]indol-9-yl)acetyl)-N-(6-bromopyridin-2-yl)-2-azabicyclo[3.1.0]hexane-3-carboxamide], the IC50 is less than 100 nM.

For `Cc1cc(C)c2c(c1)c1c(N)ncnc1n2CC(=O)N1[C@@H]2C[C@@H]2C[C@H]1C(=O)Nc1cccc(Br)n1` [Compound 189g, (1R,3S,5R)-2-(2-(4-amino-6,8-dimethyl-9H-pyrimido[4,5-b]indol-9-yl)acetyl)-N-(6-bromopyridin-2-yl)-2-azabicyclo[3.1.0]hexane-3-carboxamide], the concentration for half-maximal inhibition (IC50) was less than 100 nM.
